Measured values reported in patent US7931791B2, “Method of detecting analyte-biomolecule interactions” (Southern Illinois University Carbondale, priority 2006, dated 2011).

Columns and labels:
BSA = molecular target: T1, BSA (Bos taurus, UniProt P02769); assay: progesterone ligand binding assay by capillary IEF with fluorescence anisotropy, reference protein; settings: ~100 nM of each labeled protein, 100 nM fluorescein labeled progesterone, 1% ampholytes, focused at 300V; FIG. 9D
T1 construct: purchased Fisher Scientific (Fairlawn, N.J.)
T1 sequence (P02769 25-607): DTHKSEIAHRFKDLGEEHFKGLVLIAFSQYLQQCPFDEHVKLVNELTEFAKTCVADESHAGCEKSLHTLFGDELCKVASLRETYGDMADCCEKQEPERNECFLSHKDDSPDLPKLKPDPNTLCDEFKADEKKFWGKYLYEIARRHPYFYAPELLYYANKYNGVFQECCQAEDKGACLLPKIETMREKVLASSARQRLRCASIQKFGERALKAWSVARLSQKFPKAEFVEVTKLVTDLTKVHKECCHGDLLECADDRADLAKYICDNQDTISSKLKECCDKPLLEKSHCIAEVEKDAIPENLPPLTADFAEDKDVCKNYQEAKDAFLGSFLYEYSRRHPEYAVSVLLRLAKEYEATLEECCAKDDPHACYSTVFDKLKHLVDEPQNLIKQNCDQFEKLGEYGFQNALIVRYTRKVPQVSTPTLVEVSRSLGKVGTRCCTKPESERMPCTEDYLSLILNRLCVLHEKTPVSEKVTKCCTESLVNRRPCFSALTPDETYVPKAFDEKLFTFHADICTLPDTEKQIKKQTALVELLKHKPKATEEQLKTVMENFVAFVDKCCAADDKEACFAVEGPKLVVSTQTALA
Protocol: Chemicals. Acetic acid, ammonium acetate, hydroxypropyl cellulose (HPC, avg. MW 100,000), HPLC grade dimethylsulfoxide (DMSO), HPLC grade water, BSA, and phosphate buffered saline (PBS, pH 7.4) were obtained from Fisher Scientific (Fairlawn, N.J.). Ampholytes (Pharmolyte 3-10 for IEF) were obtained from Amersham Biosciences (Piscataway, N.J.).
Sample Preparation. TRITC-labeled proteins were prepared according to manufacturer's protocol. […] TRITC was dissolved in DMSO at 1 mg/mL. The TRITC solution was added to the protein sample, and incubated in the dark for 2 hours.
Focusing Capillaries. 75 μm i.d., 360 μm o.d. fused silica capillaries (Polymicro, Phoenix, Ariz.) were coated with hydroxypropyl cellulose (HPC) by filling the capillaries with a 5% HPC solution and then baking them at 200° C. for 45 minutes. This treatment effectively eliminated the electroosmotic flow in the capillary.
cIEF. […]
Fluorescence anisotropy. Fluorescence emission was viewed using a Leica inverted microscope with a 10× long range objective in an epifluorescence configuration. […]
Since the microscope was operated in epifluorescence mode, it was not possible to measure a true anisotropy value. […] Since both the parallel and perpendicular emission intensities were not measured, the anisotropy value could be calculated, but this configuration did permit the detection of areas with increased anisotropies.

[1] = system: lysate from MCF-7 breast cancer cells; assay: DIABLA progesterone-protein interactions in a cell lysate; type: binding; settings: MCF-7 breast cancer cell lysate, protocols as in Example 6
Protocol: The detection sensitivity of DIABLA was tested by examining progesterone-protein interactions in a lysate from MCF-7 breast cancer cells. The experimental protocols were essentially as described above in Example 6, except that a cell lysate was used rather than pure proteins. Five different protein targets that interact with progesterone were identified. FIG. 11 presents one of the targets.

## CC(=O)[C@H]1CC[C@H]2[C@@H]3CCC4=CC(=O)CC[C@]4(C)[C@H]3CC[C@]12C [progesterone]
BSA
  anisotropy in the region containing the focused BSA band: no or low anisotropy
[1]
  number of protein targets that interact with progesterone identified: Five
